Columns and labels:
[1] = healthy volunteers, cited from earlier work
[2] = Clinical trials of Compound 1: resistance and tolerability; type: in vivo, human
Text: Compound 1, is also known as “sofosbuvir” or “SOF”.

| SMILES | increases in Compound 1 exposure from co-administration ([1]; co-administration with GS-5885, GS-9669, and GS-5885+GS-9669) | tolerability [2] | exposure on concurrent administration of Compound 1 [1] |
| --- | --- | --- | --- |
| CC(C)OC(=O)[C@H](C)N[P@](=O)(OC[C@H]1O[C@@H](n2ccc(=O)[nH]c2=O)[C@](C)(F)[C@@H]1O)Oc1ccccc1 [Compound 1, (S)-isopropyl2-(((S)-(((2R,3R,4R,5R)-5-(2,4-dioxo-3,4-dihydrophyrimidin-1(2H)-yl)-4-fluoro-3-hydroxy-4-methyltetrahydrofuran-2-yl)methoxy)(phenoxy)phosphoryl)amino)propanoate] | not clinically significant | well-tolerated | – |
| COC(=O)N[C@H](C(=O)N1CC2(CC2)C[C@H]1c1ncc(-c2ccc3c(c2)C(F)(F)c2cc(-c4ccc5nc([C@@H]6[C@H]7CC[C@H](C7)N6C(=O)[C@@H](NC(=O)OC)C(C)C)[nH]c5c4)ccc2-3)[nH]1)C(C)C [GS-5885] | – | – | unaffected |
| COC[C@H]1C[C@@H](c2ncc(-c3ccc4c(c3)COc3cc5c(ccc6nc([C@@H]7CC[C@H](C)N7C(=O)[C@@H](NC(=O)OC)C(C)C)[nH]c65)cc3-4)[nH]2)N(C(=O)[C@H](NC(=O)OC)c2ccccc2)C1 [GS-9669] | – | – | unaffected |
